In ChEMBL document CHEMBL3045296, “Synthesis of aryloxyalkylamines as h5-HT1B agonists with potential analgesic activity” (Med Chem Res, 2009):

How the values were obtained:
[1] = system: Mus musculus; experiment: Toxicity in Mus musculus (mouse) assessed as tremors at 20 mg/kg, ip; type: organism-based; parameters: dose 20 mg/kg, route intraperitoneal; settings: in vivo
[2] = system: Mus musculus; experiment: Toxicity in Mus musculus (mouse) assessed as protrusion of eyes at 20 mg/kg, ip; type: organism-based; parameters: dose 20 mg/kg, route intraperitoneal; settings: in vivo
[3] = target: 5-hydroxytryptamine receptor 1D (Homo sapiens, UniProt P28221); experiment: Binding affinity to Homo sapiens (human) 5HT1D receptor by radioligand binding assay
Chain of 5-hydroxytryptamine receptor 1D (P28221 whole entry): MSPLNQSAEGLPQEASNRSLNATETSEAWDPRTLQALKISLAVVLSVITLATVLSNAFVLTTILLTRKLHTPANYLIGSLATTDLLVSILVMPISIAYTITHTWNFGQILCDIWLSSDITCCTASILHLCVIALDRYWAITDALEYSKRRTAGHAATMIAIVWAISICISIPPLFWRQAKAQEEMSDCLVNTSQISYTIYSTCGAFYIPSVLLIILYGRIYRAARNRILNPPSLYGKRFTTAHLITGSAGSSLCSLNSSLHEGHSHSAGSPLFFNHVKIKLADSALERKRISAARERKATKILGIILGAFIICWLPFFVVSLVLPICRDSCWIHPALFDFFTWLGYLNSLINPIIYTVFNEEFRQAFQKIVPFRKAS

[4] = system: Mus musculus; experiment: Toxicity in Mus musculus (mouse) assessed as excitation at 20 mg/kg, ip; type: organism-based; parameters: dose 20 mg/kg, route intraperitoneal; settings: in vivo
[5] = system: Mus musculus; experiment: Toxicity in Mus musculus (mouse) assessed as skeletal muscle incoordination at 20 mg/kg, ip; type: organism-based, Muscle tissue; parameters: dose 20 mg/kg, route intraperitoneal; settings: in vivo
[6] = system: Mus musculus; experiment: Toxicity in Mus musculus (mouse) assessed as muscle twitching at 20 mg/kg, ip; type: organism-based, Muscle tissue; parameters: dose 20 mg/kg, route intraperitoneal; settings: in vivo
[7] = target: 5-hydroxytryptamine receptor 1B (Homo sapiens, UniProt P28222); experiment: Binding affinity to Homo sapiens (human) 5HT1B receptor by radioligand binding assay
Chain of 5-hydroxytryptamine receptor 1B (P28222 whole entry): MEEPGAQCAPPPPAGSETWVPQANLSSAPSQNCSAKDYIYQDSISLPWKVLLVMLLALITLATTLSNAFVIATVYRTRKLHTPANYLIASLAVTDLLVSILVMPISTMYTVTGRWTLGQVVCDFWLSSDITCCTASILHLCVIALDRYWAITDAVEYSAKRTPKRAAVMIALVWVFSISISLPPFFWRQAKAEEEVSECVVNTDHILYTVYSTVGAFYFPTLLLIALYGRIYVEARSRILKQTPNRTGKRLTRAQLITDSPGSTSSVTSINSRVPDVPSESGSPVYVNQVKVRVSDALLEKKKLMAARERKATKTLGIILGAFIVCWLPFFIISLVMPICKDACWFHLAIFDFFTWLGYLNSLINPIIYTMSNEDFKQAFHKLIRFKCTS

[8] = system: Mus musculus; experiment: Analgesic activity in Mus musculus (mouse) assessed as writhing response at 20 mg/kg, ip relative to control; type: functional; settings: route intraperitoneal
[9] = system: Mus musculus; experiment: Toxicity in Mus musculus (mouse) assessed as irritability at 20 mg/kg, ip; type: organism-based; parameters: dose 20 mg/kg, route intraperitoneal; settings: in vivo
[10] = system: Mus musculus; experiment: Toxicity in Mus musculus (mouse) assessed as tail and hair erection at 20 mg/kg, ip; type: organism-based; parameters: dose 20 mg/kg, route intraperitoneal; settings: in vivo
[11] = system: Mus musculus; experiment: Toxicity in Mus musculus (mouse) assessed as epilepsy at 20 mg/kg, ip; type: organism-based; parameters: dose 20 mg/kg, route intraperitoneal; settings: in vivo
[12] = system: Mus musculus; experiment: Toxicity in Mus musculus (mouse) assessed as difficulties in respiration at 20 mg/kg, ip; type: organism-based; parameters: dose 20 mg/kg, route intraperitoneal; settings: in vivo
[13] = system: Mus musculus; experiment: Analgesic activity in Mus musculus (mouse) assessed as writhing response at 75 mg/kg, ip relative to control; type: functional; settings: route intraperitoneal
[14] = system: Mus musculus; experiment: Toxicity in Mus musculus (mouse) assessed as muscle twitching at 50 mg/kg, ip; type: organism-based, Muscle tissue; parameters: dose 50 mg/kg, route intraperitoneal; settings: in vivo
[15] = system: Mus musculus; experiment: Toxicity in Mus musculus (mouse) assessed as difficulties in respiration at 50 mg/kg, ip; type: organism-based; parameters: dose 50 mg/kg, route intraperitoneal; settings: in vivo
[16] = system: Mus musculus; experiment: Analgesic activity in Mus musculus (mouse) assessed as writhing response at 25 mg/kg, ip relative to control; type: functional; settings: route intraperitoneal
[17] = system: Mus musculus; experiment: Toxicity in Mus musculus (mouse) assessed as excitation at 50 mg/kg, ip; type: organism-based; parameters: dose 50 mg/kg, route intraperitoneal; settings: in vivo
[18] = system: Mus musculus; experiment: Toxicity in Mus musculus (mouse) assessed as irritability at 50 mg/kg, ip; type: organism-based; parameters: dose 50 mg/kg, route intraperitoneal; settings: in vivo
[19] = system: Mus musculus; experiment: Toxicity in Mus musculus (mouse) assessed as skeletal muscle incoordination at 50 mg/kg, ip; type: organism-based, Muscle tissue; parameters: dose 50 mg/kg, route intraperitoneal; settings: in vivo
[20] = system: Mus musculus; experiment: Toxicity in Mus musculus (mouse) assessed as tail and hair erection at 50 mg/kg, ip; type: organism-based; parameters: dose 50 mg/kg, route intraperitoneal; settings: in vivo
[21] = system: Mus musculus; experiment: Toxicity in Mus musculus (mouse) assessed as protrusion of eyes at 50 mg/kg, ip; type: organism-based; parameters: dose 50 mg/kg, route intraperitoneal; settings: in vivo
[22] = system: Mus musculus; experiment: Analgesic activity in Mus musculus (mouse) assessed as writhing response at 50 mg/kg, ip relative to control; type: functional; settings: route intraperitoneal
[23] = system: Mus musculus; experiment: Toxicity in Mus musculus (mouse) assessed as tremors at 50 mg/kg, ip; type: organism-based; parameters: dose 50 mg/kg, route intraperitoneal; settings: in vivo
[24] = system: Mus musculus; experiment: Toxicity in Mus musculus (mouse) assessed as epilepsy at 50 mg/kg, ip; type: organism-based; parameters: dose 50 mg/kg, route intraperitoneal; settings: in vivo
[25] = system: Mus musculus; experiment: Analgesic activity in Mus musculus (mouse) assessed as writhing response at 100 mg/kg, ip relative to control; type: functional; settings: route intraperitoneal

With `CNC(C)COc1cc(Cl)ccc1Cl.O=C(O)C(=O)O` (racemic) the Activity [1] was “Toxic”, the Activity [2] was “Toxic” and the Ki [3] was 5.4 µM. For the same compound, the Activity [4] was “Toxic”, the Activity [5] was “Toxic” and the Activity [6] was “Toxic”. For the same compound, the Ki [7] was 6.69 µM, the Activity [8] was 66% and the Activity [9] was “Toxic”. For the same compound, the Activity [10] was “Toxic”, the Activity [11] was “Toxic” and the Activity [12] was “Toxic”.

In the case of `CN[C@@H](COc1cccc(Cl)c1Cl)c1ccccc1`, the Ki [3] is reported as 6.29 µM and the Ki [7] is reported as over 10 µM.

`CN1CCN(CCOc2ccc(Br)cc2Br)CC1` was tested, and the Ki [3] was over 10 µM and the Ki [7] was 1.46 µM.

`CNCCOc1cc(Cl)ccc1Cl` was tested, and the Ki [3] was 3.82 µM and the Ki [7] was 3.64 µM.

In the case of `CNC(C)COc1ccc(Cl)cc1Cl` (racemic), the Ki [3] is reported as 2.87 µM and the Ki [7] is reported as 4.2 µM.

`CNC(C)COc1c(Br)cccc1Br.O=C(O)C(=O)O` (racemic) was tested, and the Activity [13] was 100%, the Activity [14] was “Toxic” and the Ki [3] was 0.225 µM. For the same compound, the Activity [15] was “Toxic”, the Activity [16] was 0% and the Activity [17] was “Toxic”. For the same compound, the Activity [18] was “Toxic”, the Activity [19] was “Toxic” and the Ki [7] was 0.0715 µM. For the same compound, the Activity [20] was “Toxic”, the Activity [21] was “Toxic” and the Activity [22] was 75%. For the same compound, the Activity [23] was “Toxic” and the Activity [24] was “Toxic”.

Work on `CNCCOc1ccc(Cl)cc1Cl` yielded a Ki [3] of 0.975 µM and a Ki [7] of 2.75 µM.

In the case of `CC(=O)Oc1ccccc1C(=O)O` [ASPIRIN], the Activity [25] is reported as 100%.

With `CNCCOc1ccc(Br)cc1Br` the Ki [3] was 1.24 µM and the Ki [7] was 1.25 µM.

`CNC(C)COc1cccc(Cl)c1Cl` (racemic) was tested, and the Ki [3] was 0.599 µM and the Ki [7] was 2.48 µM.

Compound `CNCCOc1cccc(Cl)c1Cl` has a Ki [3] of 2.03 µM and a Ki [7] of 0.0364 µM.

`CN1CCN([C@@H](COc2cccc(Cl)c2Cl)c2ccccc2)CC1` showed a Ki [3] of 1.49 µM and a Ki [7] of 0.833 µM.

`CN1CCN([C@H](COc2cccc(Cl)c2Cl)c2ccccc2)CC1` showed a Ki [3] of 5.46 µM and a Ki [7] of 0.912 µM.

`CN[C@H](COc1cccc(Cl)c1Cl)c1ccccc1` showed a Ki [3] of 7.79 µM.

In the case of `CNC(C)COc1ccc(Br)cc1Br` (racemic), the Ki [3] is reported as 1.12 µM and the Ki [7] is reported as 2.32 µM.

`CNC(C)COc1cccc(Oc2ccccc2)c1` (racemic) gave a Ki [3] of 0.393 µM and a Ki [7] of 0.752 µM.

In the case of `CNCCOc1c(Br)cccc1Br.O=C(O)C(=O)O`, the Activity [13] is reported as 100%, the Activity [14] is reported as “Toxic” and the Activity [15] is reported as “Toxic”. For the same compound, the Activity [16] was 25%, the Activity [17] was “Toxic” and the Activity [18] was “Toxic”. The Activity [19] was “Toxic”, the Activity [20] was “Toxic” and the Activity [21] was “Toxic”. The Activity [22] was 62.5%, the Activity [23] was “Toxic” and the Activity [24] was “Toxic”.
